Source: ChEMBL document CHEMBL1201862, “PubChem BioAssay data set” (2004)
Activity calls are given as the source filed them.

Assays:
[1] = viability loss in human Jurkat cells – cell-based, luminescence, cytotoxicity control for P. falciparum gametocyte viability project, dose response (AID 1117277); assay type: functional;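 note: potency reflects loss of cellular ATP meaning fewer viable cells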
[2] = viability inhibitors of stage V gametocytes – luminescence, dose response (AID 1117278); assay type: functional, cell-based;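 note: gametocytes exposed to compound for 24 hours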
[3] = toxicity to human hepatoma HepG2 cells – cell-based, cherry-picked samples, cytotoxicity control, dose response (AID 1159577); assay type: functional
[4] = P. falciparum Dd2 growth inhibitors, dose response, SYBR Green, cherry-picked samples (AID 1159567); assay type: functional, cell-based
Protein Tat = Protein Tat (Human immunodeficiency virus type 1 group M subtype B (isolate HXB2)(HIV-1), UniProt P04608); assay type: functional;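 note: tat binding to TAR RNA read out by fluorescence polarization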
Chain of Protein Tat (P04608 whole entry): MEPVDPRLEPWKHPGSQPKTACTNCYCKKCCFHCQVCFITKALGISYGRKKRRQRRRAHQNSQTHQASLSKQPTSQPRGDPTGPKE

[5] = growth inhibition of yeast DHODH-expressing 3D7 parasites – SYBR Green, dry powder samples, dose response (AID 1159570); assay type: functional, cell-based;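 note: parasite growth measured after 72 hours of compound exposure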
[6] = Dd2 malaria parasite growth inhibition potency – SYBR Green, dry powder samples, dose response (AID 1159566); assay type: functional, cell-based;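 note: potency for growth inhibition with lower SYBR green DNA signal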
[7] = growth inhibition of PfATP4-mutant resistant parasites – NITD609-resistant line, SYBR Green, dry powder, dose response (AID 1159571); assay type: functional, cell-based;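 note: parasites synchronized at ring stage by sorbitol before testing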
Escherichia coli [8] = test: microbe, parasite or virus in culture
Escherichia coli [9] = test: microbe, parasite or virus in culture; remark: listed apart in the source
[10] = target: NAD-dependent protein deacylase sirtuin-5, mitochondrial (Homo sapiens, UniProt Q9NXA8); test: sirtuin-5 deacylation blockers, concentration series – biochemical, fluorescence imaging, cherry-pick, set 5, dose response (AID 720591);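 note: desuccinylation of succinyl peptide AMC substrate read as fluorescence after trypsin release; potency of inhibitors that lower fluorescence and may act on trypsin instead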
Chain of NAD-dependent protein deacylase sirtuin-5, mitochondrial (Q9NXA8 whole entry): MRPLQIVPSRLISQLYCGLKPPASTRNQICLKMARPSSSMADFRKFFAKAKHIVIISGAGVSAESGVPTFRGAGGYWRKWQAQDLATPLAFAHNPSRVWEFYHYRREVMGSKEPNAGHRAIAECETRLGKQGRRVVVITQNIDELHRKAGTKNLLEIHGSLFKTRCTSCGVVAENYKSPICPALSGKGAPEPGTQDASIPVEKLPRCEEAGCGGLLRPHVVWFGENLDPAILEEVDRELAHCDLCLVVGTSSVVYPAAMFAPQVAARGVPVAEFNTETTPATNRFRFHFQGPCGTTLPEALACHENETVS

[11] = target: T1, Low molecular weight phosphotyrosine protein phosphatase (Homo sapiens, UniProt P24666); test: inhibition of LMPTP-A enzymatic activity – biochemical, OMFP substrate, fluorescence intensity, set 2, dose response (AID 743307); assay type: functional
T1 sequence (P24666 whole entry): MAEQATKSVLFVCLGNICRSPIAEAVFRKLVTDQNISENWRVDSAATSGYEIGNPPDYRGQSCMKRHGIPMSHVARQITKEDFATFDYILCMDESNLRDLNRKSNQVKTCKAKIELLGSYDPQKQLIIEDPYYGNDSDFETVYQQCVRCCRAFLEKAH

[12] = target: T1, Low molecular weight phosphotyrosine protein phosphatase; test: inhibition of human LMPTP enzyme activity – biochemical, absorbance, pNPP substrate, LMPTP-A isoform, set 2, orthogonal assay, dose response (AID 743308); assay type: functional
[13] = target: G-protein coupled receptor 183 (Homo sapiens, UniProt P32249); test: SAR confirmation of small molecule antagonists of the EBI2 receptor via a luminescent beta-arrestin assa.; assay type: functional
Chain of G-protein coupled receptor 183 (P32249 whole entry, the tested form may be a part): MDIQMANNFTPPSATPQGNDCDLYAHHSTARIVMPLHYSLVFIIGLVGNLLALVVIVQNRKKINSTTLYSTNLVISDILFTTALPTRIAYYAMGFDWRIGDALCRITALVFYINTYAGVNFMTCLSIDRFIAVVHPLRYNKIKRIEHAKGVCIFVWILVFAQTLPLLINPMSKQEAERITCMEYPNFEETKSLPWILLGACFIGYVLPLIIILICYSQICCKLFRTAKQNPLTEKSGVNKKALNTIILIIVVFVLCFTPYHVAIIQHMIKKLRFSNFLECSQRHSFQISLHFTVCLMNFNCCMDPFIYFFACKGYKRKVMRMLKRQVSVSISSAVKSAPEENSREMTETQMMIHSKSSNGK

[14] = target: T2, Carboxy-terminal domain RNA polymerase II polypeptide A small phosphatase 1 (Homo sapiens, UniProt Q9GZU7); test: CTDSP1 inhibitors, concentration-response, biochemical, absorbance readout, ultra-high-throughput screen actives (AID 540297); assay type: functional
T2 sequence (Q9GZU7 whole entry): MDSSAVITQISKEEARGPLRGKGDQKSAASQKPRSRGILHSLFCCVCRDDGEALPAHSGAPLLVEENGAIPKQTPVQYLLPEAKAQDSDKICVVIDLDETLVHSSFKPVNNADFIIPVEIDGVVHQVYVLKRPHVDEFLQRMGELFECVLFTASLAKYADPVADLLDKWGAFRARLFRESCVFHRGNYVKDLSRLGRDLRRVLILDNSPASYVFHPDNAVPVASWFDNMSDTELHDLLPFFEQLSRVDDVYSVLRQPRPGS

[15] = target: T3, Small ubiquitin-related modifier 1 (Homo sapiens, UniProt P63165); test: SUMO1 protein-protein binding blockers, potency – biochemical, FRET, dose response (AID 624383); assay type: functional; conditions: read-out: IC50_Mean
T3 sequence (P63165 whole entry): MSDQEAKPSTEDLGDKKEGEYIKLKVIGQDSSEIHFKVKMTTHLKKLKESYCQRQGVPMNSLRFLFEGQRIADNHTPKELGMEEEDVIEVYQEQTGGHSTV

[16] = viability loss in THP-1 monocytes – THP-1 cells, cytotoxicity control for Vif-APOBEC3G degradation inhibitor project, dose response (AID 1117359); assay type: functional; conditions: THP-1
[17] = target: T3, Small ubiquitin-related modifier 1; test: SUMO1 protein interaction blockers, potency – biochemical, fluorescence polarization, uHTS hits, dose response (AID 624382); assay type: functional; conditions: read-out: IC50_Mean
[18] = target: T4, Probable nicotinate-nucleotide adenylyltransferase (Staphylococcus aureus (strain N315), UniProt P65502); assay type: functional, Staphylococcus aureus subsp. aureus N315;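 for IC50 Mean: confirmatory dose-response retesting of NadD inhibitor hits first found in an ultra-high-throughput screen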
T4 sequence (P65502 whole entry): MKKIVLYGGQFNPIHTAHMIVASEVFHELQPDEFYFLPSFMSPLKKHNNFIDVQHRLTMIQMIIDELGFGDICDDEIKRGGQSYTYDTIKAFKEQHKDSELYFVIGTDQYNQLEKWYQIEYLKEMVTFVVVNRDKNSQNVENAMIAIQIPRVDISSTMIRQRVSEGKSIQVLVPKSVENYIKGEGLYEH

[19] = target: T4, Probable nicotinate-nucleotide adenylyltransferase; assay type: functional, Staphylococcus aureus subsp. aureus N315; conditions: read-out: IC50_Mean
[20] = rise of 4N DNA cells, HeLa – IC50, dose response (AID 1117351); assay type: functional, cell-based
[21] = cytotoxicity toward HCT116 cells – cell-based, CellTiter-Glo luminescence, IC50, dose response (AID 1117332); assay type: functional; conditions: HCT-116
[22] = SNU-C1 cell viability reduction, dose response, CellTiter-Glo luminescence (AID 1117323); assay type: functional, cell-based
[23] = cytotoxicity toward HT-29 cells – cell-based, CellTiter-Glo luminescence, IC50, dose response (AID 1117330); assay type: functional
[24] = rise of 2N DNA cells, HeLa – IC50, dose response (AID 1117349); assay type: functional, cell-based
[25] = Reduced DLD-1 viability, concentration-response, CellTiter-Glo luminescence (AID 1117352); assay type: functional
[26] = CellTiter-Glo luminescence survival assay, SW480 colon tumor line, concentration-response curve, half-maximal inhibitory concentration (AID 1117338); assay type: functional
[27] = cytotoxicity toward Colo320 cells – cell-based, CellTiter-Glo luminescence, IC50, dose response (AID 1117334); assay type: functional; conditions: COLO 320
[28] = RKO cell viability reduction, dose response, CellTiter-Glo luminescence (AID 1117322); assay type: functional
[29] = target: T5, Oxysterols receptor LXR-beta (Homo sapiens, UniProt P55055); assay type: functional, cell-based;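 note: Cell-based luminescence dose-response assay of agonist activity at LXR, run as a confirmatory counterscreen to a daf-12 agonist screen; HEK293 cells with Gal4-LXR fusion and GAL4-driven luciferase reporter; agonist potency from rising luciferase signal of a Gal4-LXR reporter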
T5 sequence (P55055 whole entry): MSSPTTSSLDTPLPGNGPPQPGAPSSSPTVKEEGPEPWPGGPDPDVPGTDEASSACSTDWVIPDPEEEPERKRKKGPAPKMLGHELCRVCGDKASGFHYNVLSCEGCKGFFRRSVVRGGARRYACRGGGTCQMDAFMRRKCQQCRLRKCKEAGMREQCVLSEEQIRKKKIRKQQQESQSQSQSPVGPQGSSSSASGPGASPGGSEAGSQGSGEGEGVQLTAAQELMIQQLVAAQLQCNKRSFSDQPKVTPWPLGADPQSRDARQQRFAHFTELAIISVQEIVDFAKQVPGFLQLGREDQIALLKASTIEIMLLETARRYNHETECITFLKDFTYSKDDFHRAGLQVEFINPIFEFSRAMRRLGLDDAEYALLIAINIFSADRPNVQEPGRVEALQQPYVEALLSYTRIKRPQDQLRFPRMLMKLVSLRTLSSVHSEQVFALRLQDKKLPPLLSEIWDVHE

Estrogen receptor = target: T6, Estrogen receptor (Homo sapiens, UniProt P03372); test: ERα coactivator recruitment enhancers – biochemical, TR-FRET, ERα LBD, dose response (AID 737)
T6 sequence (P03372 whole entry): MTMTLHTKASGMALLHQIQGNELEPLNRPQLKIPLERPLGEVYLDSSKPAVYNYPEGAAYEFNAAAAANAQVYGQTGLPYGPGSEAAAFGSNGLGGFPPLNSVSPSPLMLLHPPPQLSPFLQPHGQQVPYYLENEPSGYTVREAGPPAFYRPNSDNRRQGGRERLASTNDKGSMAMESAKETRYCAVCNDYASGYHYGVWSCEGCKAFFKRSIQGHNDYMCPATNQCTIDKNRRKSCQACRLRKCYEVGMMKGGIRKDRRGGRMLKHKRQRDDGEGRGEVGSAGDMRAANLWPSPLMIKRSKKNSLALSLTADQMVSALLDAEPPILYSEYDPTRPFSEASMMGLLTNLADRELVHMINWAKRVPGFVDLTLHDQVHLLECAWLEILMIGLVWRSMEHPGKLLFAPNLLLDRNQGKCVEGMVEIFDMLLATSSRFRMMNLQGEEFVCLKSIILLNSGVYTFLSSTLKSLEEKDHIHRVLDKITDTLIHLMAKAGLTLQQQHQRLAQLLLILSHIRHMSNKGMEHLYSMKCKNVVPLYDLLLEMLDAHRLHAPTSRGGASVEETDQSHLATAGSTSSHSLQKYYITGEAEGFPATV

[30] = target: T7, RNA-binding protein pos-1 (Caenorhabditis elegans, UniProt G5EF15); test: disruptors of C. elegans POS-1 RNA interaction – biochemical, fluorescence polarization, dose response (AID 1964);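 note: purified POS-1 fused to maltose binding protein made in E. coli; potency of compounds blocking POS-1 binding to fluorescent RNA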
T7 sequence (G5EF15 whole entry): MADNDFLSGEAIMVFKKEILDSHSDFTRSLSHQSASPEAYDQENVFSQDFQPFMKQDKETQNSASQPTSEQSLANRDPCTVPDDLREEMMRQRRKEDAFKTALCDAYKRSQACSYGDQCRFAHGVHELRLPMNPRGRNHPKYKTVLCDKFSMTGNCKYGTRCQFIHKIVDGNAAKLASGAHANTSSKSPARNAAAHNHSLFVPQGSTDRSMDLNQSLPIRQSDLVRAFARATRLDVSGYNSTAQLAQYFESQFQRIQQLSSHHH

[31] = target: T8, Zinc finger protein mex-5 (Caenorhabditis elegans, UniProt Q9XUB2); test: potency of MEX-5 RNA-binding blockers – biochemical, C. elegans, fluorescence polarization, dose response (AID 1960)
T8 sequence (Q9XUB2 whole entry): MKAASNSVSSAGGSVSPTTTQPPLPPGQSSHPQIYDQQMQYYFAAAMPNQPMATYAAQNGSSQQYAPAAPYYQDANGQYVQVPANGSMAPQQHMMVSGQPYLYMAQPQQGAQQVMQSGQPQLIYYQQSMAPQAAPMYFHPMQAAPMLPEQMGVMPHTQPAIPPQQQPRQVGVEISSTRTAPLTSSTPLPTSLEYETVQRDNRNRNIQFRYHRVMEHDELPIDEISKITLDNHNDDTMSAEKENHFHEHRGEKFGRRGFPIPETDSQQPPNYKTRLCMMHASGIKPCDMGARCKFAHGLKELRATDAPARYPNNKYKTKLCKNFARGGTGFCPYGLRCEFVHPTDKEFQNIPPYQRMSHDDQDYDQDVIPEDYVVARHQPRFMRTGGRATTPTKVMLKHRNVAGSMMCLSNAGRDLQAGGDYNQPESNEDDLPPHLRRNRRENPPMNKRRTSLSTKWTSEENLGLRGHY

For CC(C)(C)c1cccc(OCCCSc2ncccn2)c1, the IC50 [1] was > 83.3 µM (inactive) and the IC50 [2] was > 109 µM (inactive).
In the case of Fc1cccc(-c2ccc([C@@H]3[C@@H]4CN(Cc5cccnc5)C[C@H]3N4)cc2)c1, the AC50 [3] was 13 µM (active) and the AC50 [4] was 0.348 µM (active).
With COc1ccc(CCNC(=O)CN2CCCc3ccccc32)cc1OC the IC50 (Protein Tat) was > 100 µM (active).
In the case of C[C@@H]1CN([C@@H](C)CO)C(=O)Cc2cc(NC(=O)Nc3ccc4c(c3)OCO4)ccc2O[C@@H]1CN(C)CC1CC1, the AC50 [5] was 4.73 µM (active), the AC50 [6] was 2.02 µM (active) and the AC50 [4] was 2.37 µM (active). The AC50 [7] was 2.76 µM (active).
With C=C1c2cccc(O)c2C(=O)C2C(=O)[C@]3(O)C(=O)C(C(N)=O)C(=O)[C@@H](N(C)C)[C@@H]3[C@@H](O)[C@H]12 (some centres undefined) the AC50 (Escherichia coli [8]) was 2.19 µM (active), the AC50 (Escherichia coli [9]) was 31.7 µM (active) and the AC50 [10] was 12.7 µM (active).
With COc1cc2nc(-c3ccccc3)cc(NCCCN3CCCCC3)c2cc1OC the IC50 [11] was > 80 µM (inactive) and the IC50 [12] was > 80 µM (inactive).
In the case of c1ccc(-c2cc(OCCCN3CCCCC3)c3ccccc3n2)cc1, the IC50 [11] was 11.5 µM (active) and the IC50 [12] was 19 µM (active).
For O=C(/C=C/c1ccc(Br)cc1F)N1CCN(S(=O)(=O)c2ccc(Br)cc2)CC1, the IC50 [13] was 0.0655 µM (active).
For O=C(COC(=O)c1c2c(nc3ccccc13)/C(=C\c1ccco1)CC2)NC1CCCC1, the IC50 [14] was 2.49 µM (active), the IC50 [15] was 10.4 µM (active) and the CC50 [16] was > 40 µM (active). The IC50 (Protein Tat) was > 100 µM (active), the IC50 [17] was > 66.6 µM (inactive) and the IC50 [18] was 8.49 µM (active). For the same molecule, the IC50 [19] was 16.9 µM (active).
In the case of COc1ccc(-c2ccc3cc(C(=O)O)ccc3c2)cc1C12CC3CC(CC(C3)C1)C2, the IC50 [20] was > 10 µM (inactive), the IC50 [21] was 0.59 µM (active) and the IC50 [22] was 1.78 µM (active). The IC50 [23] was 1.12 µM (active), the IC50 [24] was > 10 µM (inactive) and the IC50 [25] was 0.597 µM (active). The IC50 [26] was 0.405 µM (active), the IC50 [27] was 0.787 µM (active) and the IC50 [28] was 0.444 µM (active).
With Cc1ccc2ccc(C3C(=O)c4ccccc4C3=O)nc2c1 the EC50 [29] was > 67.6 µM (inactive), the EC50 (Estrogen receptor) was 13.2 µM (not active) and the EC50 (cells) was > 67.6 µM (inactive). For the same molecule, the EC50 [30] was > 300 µM (not active) and the EC50 [31] was 48.4 µM (active).
With COC(=O)c1ccc2nc(-c3ccc(OC)c(OC)c3)c(Cc3ccccc3C(F)(F)F)n2c1 the AC50 [10] was > 30 µM (inactive).
With O=C(/C=C/c1ccc(Br)cc1)N1CCN(Cc2ccc(F)cc2C(F)(F)F)CC1 the IC50 [13] was 0.00818 µM (active).
In the case of Cc1ccc2nc(-c3ccccc3)c(-c3ccccc3)nc2c1, the IC50 [1] was > 83.3 µM (inactive) and the IC50 [2] was > 109 µM (inactive).
With CCc1nc(N2[C@H](C#N)[C@H](c3ccccc3-c3ccccc3F)[C@@H]2CO)sc1C the AC50 [3] was > 39 µM (inactive) and the AC50 [4] was 8.71 µM (active).
